From patent US11178868B2, “Alkynyl-substituted 3-phenylpyrrolidine-2,4-diones and use thereof as herbicides” (Bayer CropScience Aktiengesellschaft, priority 2015, dated 2021)

How the values were obtained:
Assay type in all cases: in vivo
Alopecurus myosuroides [1] = assay: Pre-emergence herbicidal effect; details: scored visually after 3 weeks
Description: (§1) Seeds of monocotyledonous and dicotyledonous weed plants and crop plants are laid out in wood-fibre pots in sandy loam and covered with soil. The compounds according to the invention formulated in the form of wettable powders (WP) or as emulsion concentrates (EC) are then applied as aqueous suspension or emulsion at a water application rate of 600 to 800 I/ha (converted) with the addition of 0.2% wetting agent to the surface of the covering soil. After the treatment, the pots are placed in a greenhouse and kept under good growth conditions for the trial plants. The damage to the test plants is scored visually after a test period of 3 weeks by comparison with untreated controls (herbicidal activity in percent (%): 100% activity=the plants have died, 0% activity=like control plants).

Avena fatua [2] = assay: Pre-emergence herbicidal effect; details: scored visually after 3 weeks
Description: as §1

Cyperus esculentus = assay: Pre-emergence herbicidal effect; details: 320 g a.i./ha, scored visually after 3 weeks
Description: as §1

Echinochloa crus-galli [3] = assay: Pre-emergence herbicidal effect; details: scored visually after 3 weeks
Description: as §1

Lolium multiflorum [4] = assay: Pre-emergence herbicidal effect; details: scored visually after 3 weeks
Description: as §1

Setaria viridis [5] = assay: Pre-emergence herbicidal effect; details: scored visually after 3 weeks
Description: as §1

Alopecurus myosuroides [6] = assay: Post-emergence herbicidal effect; details: assessed visually after about 3 weeks
Procedure: (§2) Seeds of monocotyledonous and dicotyledonous weed and crop plants are laid out in sandy loam in wood-fibre pots, covered with soil and cultivated in a greenhouse under good growth conditions. 2 to 3 weeks after sowing, the test plants are treated at the one-leaf stage. The compounds according to the invention, formulated in the form of wettable powders (WP) or as emulsion concentrates (EC), are then sprayed as aqueous suspension or emulsion at a water application rate of 600 to 800 I/ha (converted) with the addition of 0.2% of wetting agent onto the green parts of the plants. After the test plants have been left to stand in the greenhouse under optimal growth conditions for about 3 weeks, the action of the preparations is assessed visually in comparison to untreated controls (herbicidal action in percent (%): 100% activity=the plants have died, 0% activity=like control plants).

Amaranthus retroflexus = assay: Post-emergence herbicidal effect; details: assessed visually after about 3 weeks
Procedure: as §2

Avena fatua [7] = assay: Post-emergence herbicidal effect; details: assessed visually after about 3 weeks
Procedure: as §2

Echinochloa crus-galli [8] = assay: Post-emergence herbicidal effect; details: assessed visually after about 3 weeks
Procedure: as §2

Lolium multiflorum [9] = assay: Post-emergence herbicidal effect; details: assessed visually after about 3 weeks
Procedure: as §2

Polygonum convolvulus = assay: Post-emergence herbicidal effect; details: 80 g a.i./ha, assessed visually after about 3 weeks
Procedure: as §2

Setaria viridis [10] = assay: Post-emergence herbicidal effect; details: assessed visually after about 3 weeks
Procedure: as §2

Row | SMILES | Herbicidal effect against [%] ALOMY (Alopecurus myosuroides [1]; 80 g a.i./ha) | Herbicidal effect against [%] ALOMY (Alopecurus myosuroides [1]; 320 g a.i./ha) | Herbicidal effect against [%] AVEFA (Avena fatua [2]; 80 g a.i./ha) | Herbicidal effect against [%] AVEFA (Avena fatua [2]; 320 g a.i./ha) | Herbicidal effect against [%] ECHCG (Echinochloa crus-galli [3]; 80 g a.i./ha) | Herbicidal effect against [%] ECHCG (Echinochloa crus-galli [3]; 320 g a.i./ha) | Herbicidal effect against [%] LOLMU (Lolium multiflorum [4]; 80 g a.i./ha) | Herbicidal effect against [%] LOLMU (Lolium multiflorum [4]; 320 g a.i./ha) | Herbicidal effect against [%] SETVI (Setaria viridis [5]; 80 g a.i./ha) | Herbicidal effect against [%] SETVI (Setaria viridis [5]; 320 g a.i./ha) | Herbicidal effect against [%] ALOMY (Alopecurus myosuroides [6]; 20 g a.i./ha) | Herbicidal effect against [%] ALOMY (Alopecurus myosuroides [6]; 80 g a.i./ha) | Herbicidal effect against [%] AMARE (Amaranthus retroflexus; 20 g a.i./ha) | Herbicidal effect against [%] AMARE (Amaranthus retroflexus; 80 g a.i./ha) | Herbicidal effect against [%] AVEFA (Avena fatua [7]; 20 g a.i./ha) | Herbicidal effect against [%] AVEFA (Avena fatua [7]; 80 g a.i./ha) | Herbicidal effect against [%] ECHCG (Echinochloa crus-galli [8]; 20 g a.i./ha) | Herbicidal effect against [%] ECHCG (Echinochloa crus-galli [8]; 80 g a.i./ha) | Herbicidal effect against [%] LOLMU (Lolium multiflorum [9]; 20 g a.i./ha) | Herbicidal effect against [%] LOLMU (Lolium multiflorum [9]; 80 g a.i./ha) | further results
1 | CC#Cc1cc(C)c(C2=C(O)C3(CCCC(OCCOC)C3)NC2=O)c(C)c1 (centres unmarked) [Example D6] | 100% | 100% | 100% | 100% | 100% | 100% | 100% | 100% | 100% | 100% | 100% | 100% | 80% | 80% | 100% | 100% | 100% | 100% | 100% | 100% | Herbicidal effect against [%] CYPES (Cyperus esculentus): 90%; Herbicidal effect against [%] POLCO (Polygonum convolvulus): 80%; Herbicidal effect against [%] SETVI (Setaria viridis [10]; 20 g a.i./ha): 100%; Herbicidal effect against [%] SETVI (Setaria viridis [10]; 80 g a.i./ha): 100%
2 | CC#Cc1cc(C)c(C2=C(OC(=O)OCC)C3(CCCC(OCCOC)C3)NC2=O)c(C)c1 (centres unmarked) [Example P15] | 100% | 100% | 100% | 100% | 100% | 100% | 100% | 100% | 100% | 100% | 100% | 100% | 80% | 80% | 100% | 100% | 100% | 100% | 100% | 100% | Herbicidal effect against [%] POLCO (Polygonum convolvulus): 80%; Herbicidal effect against [%] SETVI (Setaria viridis [10]; 20 g a.i./ha): 100%; Herbicidal effect against [%] SETVI (Setaria viridis [10]; 80 g a.i./ha): 100%
